Test results from patent US5663335A, “Immunosuppressive compounds and methods” (priority 1996, dated 1997).
“Also recorded” adds a separate entry of the source. Counter-ions that a name gives are not always drawn.

Key:
[1] = system: rat heart allograft rejection (Brown Norway donor, Lewis recipient); experiment: Heterotopic cardiac allograft survival (heart transplantation model); format: in vivo; settings: for mean survival time: intraperitoneal, daily, day -1 to day 14; for mean survival time compared with underivatized triptolide: equimolar doses: YM-273 0.40 mg/kg, YM-274 0.33 mg/kg, T10 0.25 mg/kg, i.p.
From the text: Treatment of transplantation rejection, in accordance with the invention, is illustrated for rejection of an allograft by the heart transplantation model used in Example 14. The method involves a well-characterized rat model system (Oho and Lindsey, 1969) in which a transplanted heart is attached to the abdominal great vessels of an allogeneic recipient animal, and the viability of the transplanted heart is gauged by the heart's ability to beat in the recipient animal.
In one study, the animals were administered by intraperitoneal injections, from one day preceding to 14 days following heart transplantation, either control solution (5% ethanol, 10 ml/kg), triptolide (designated as T10), or with two concentrations each of YM-273 and YM-274. There were three animals in each group, except for the control group in which five animals were used.
Heterotopic whole heart transplantation was performed according to the standard method (Oho and Lindsey, 1969). The donors (Brown Norway rats, 200-255 g, Charles River, Wilmington, Mass.) and recipients (Adult male Lewis rats, 225-275 g, Charles River) were anesthetized with sodium pentobarbital (40 mg/kg). Following adequate donor anticoagulation using heparin, the heart graft was removed and stored at 4° C. in PhysioSol Irrigation Solution (Abbott Laboratories, N. Chicago, Ill.). The ascending aorta and pulmonary artery were transected, and the vena cava and pulmonary veins were ligated. […] The cold ischemic time of all the cardiac grafts was less than 45 minutes. Graft heartbeat was monitored by abdominal palpation. The period of functional graft survival was measured as the number of days during which cardiac graft contractions could be detected by abdominal palpation. Results were confirmed by direct visualization at laparotomy.
Heart transplant recipient animals prepared as described above (3-5 animals/group) were treated with (i) control solution (5% ethanol, 10 ml/kg), (ii) YM-273 at 0.10 mg/kg and 0.40 mg/kg (FIG. 5A), (iii) YM-274 at 0.084 and 0.33 mg/kg (FIG. 5B), and (iv) and T10 (triptolide) 0.25 mg/kg (FIG. 6). In addition to showing the results for T10, FIG. 6 repeats the results from FIGS. 5A-5B for YM-273 and YM-274 at 0.40 and 0.33 mg/kg, respectively, such that their concentrations were equimolar relative to T10. All compounds were administered intraperitoneally. Treatment started on the day prior to surgery and continuing daily until postoperative day 14, or until the end of allograft survival.

[2] = Cytotoxicity by MTT assay, reported with the IL-1 assay (Table I); format: cell-based; settings: mouse, thymocytes, cytotoxic when toxicity greater than 25%
Description: Potential cytotoxicity of the test samples was assessed by the measurement of their effect on the reduction of MTT (3-[4,5-Dimethylthiazole-2-yl]-2,5-diphenyltetrazolium bromide) by cultured cells. MTT, a yellow-colored compound, is reduced by mitochondrial enzymes to form the purple crystalline reduction product formazane, providing an index of cellular respiration on viable cells as well as a sensitive assay for cytotoxicity (Mossmann, 1983).
The cytotoxicity was assessed in cultured human PBMC and mouse thymocytes. A stock solution of MTT (Sigma) at 5 mg/ml in phosphate buffered saline, pH 7.4, was prepared and stored in the dark at 4° C. PBMCs or thymocytes were cultured with various concentrations of test samples in flatbottom 96-well tissue culture plates (Costar) under the same conditions as those described above, but the stimulants (X-35 or IL-1+PHA) were replaced by appropriate medium. Untreated cells with medium alone and without the test samples were used as controls. After incubation for 21 hours, 25 μl of MTT solution was added to each well. After an additional three hours of incubation, the experiment was terminated by addition of a solution of 10% sodium dodecyl sulfate in 0.01N HCl. Following overnight incubation at 37° C. to solubilize the formazane crystals, optical density was determined at 570-650 nm in microplate reader. […]

[3] = Stability in blood serum (TLC); format: in vitro ADME; settings: rat serum, 37° C; for stability in serum, 3 to 5 minutes: first 3 to 5 minutes
Description: The stability of triptolide succinate in blood serum was determined as detailed in Example 10B. In this study, a solution of triptolide succinate (YM-262, free acid) in DMSO was mixed with rat serum and incubated at 37° C. The mixture was assayed periodically by thin layer chromatography (TLC) to follow the hydrolysis of the triptolide succinate over time.
A solution of triptolide succinate (free acid; YM-262) in DMSO was made at a concentration of 25 mg/ml, and 0.1 ml of this solution was mixed with 0.5 ml of rat serum. The mixture was incubated at 37° C. Aliquots of the mixture were taken at 1, 3, 5, 15, 45 minutes and 18 hours and analyzed by thin layer chromatography (TLC). The TLC plates were developed in 1:5 CH2 CI2 /Et2 O. After development, the plates were treated with iodine vapor and examined under a UV lamp. Triptolide and triptolide succinate were used as reference compounds (Rf =0.60), and 0.45, respectively).

[4] = Stability in water (D2O solution, 1H NMR); format: physicochemical; settings: 3 mg/ml, room temperature, Succinate Sodium Salt
Description: Sodium triptolide succinate, designated YM-274, was dissolved in D2 O, and the aqueous solution was stored at room temperature.
A solution of sodium triptolide succinate (YM-274) in D2 O was prepared at a concentration of 3 mg/ml and stored at room temperature. The solution was analyzed by ^1 H NMR at intervals of 1, 3, 5, 15, 45, 90, 180 minutes; 1, 7, 14 days; and 1, 2, 3, and 5 months.

Compound: CC(C)C12OC1C1OC13C1(C)CCC4=C(COC4=O)C1CC1OC13C2OC(=O)CCC(=O)O (stereo not drawn) [YM-273, Triptolide Succinate Tris Salt]
- mean survival time ([1]; 0.1 mg/kg): 7 days
- mean survival time ([1]; 0.4 mg/kg): 24 days
- mean survival time compared with underivatized triptolide [1]: somewhat better

Compound: CC(C)C12OC1C1OC13C1(C)CCC4=C(COC4=O)C1CC1OC13C2OC(=O)CCC(=O)O (stereo not drawn) [YM-262, Triptolide Succinate]
- MCC [2]: > 12.5 µg/mL
- time for hydrolysis of the triptolide ester to free triptolide in serum [3]: less than an hour
- stability in serum, 15 minutes ([3]; 15 minutes): the triptolide succinate spot was gone
- stability in serum, 3 to 5 minutes [3]: most of the triptolide succinate remained
- stability in serum, 3 to 5 minutes ([3]; listed as triptolide succinate): only triptolide succinate was detected by TLC

Compound: CC(C)C12OC1C1OC13C1(C)CCC4=C(COC4=O)C1CC1OC13C2OC(=O)CCC(=O)O (stereo not drawn) [YM-274, Triptolide Succinate Sodium Salt]
- mean survival time ([1]; 0.0837 mg/kg): 10 days
- mean survival time compared with underivatized triptolide ([1]; Succinate Sodium Salt): substantially better
- stability in D2O, five months ([4]; five months): Some decomposition was apparent after 5 months; also recorded: some decomposition was observed
- stability in D2O, up to three months ([4]; three months): no appreciable change in the NMR spectrum during the first three months; also recorded: unchanged after three months in solution
